Source: PMC10239507, “Development of allosteric and selective CDK2 inhibitors for contraception with negative cooperativity to cyclin binding” (Nature Communications, 2023)

Tests used:
Assay in all cases: biochemical
[1] = target: T1, 371 kinases (kinase named in each endpoint) (Homo sapiens, UniProt Q8WTQ7); conditions: GRK7
T1 construct: purchased Reaction Biology

[2] = target: T2, 371 kinases (kinase named in each endpoint) (Homo sapiens, UniProt Q9UPE1); conditions: MSSK1/STK23
T2 construct: purchased Reaction Biology
T2 sequence (Q9UPE1 whole entry): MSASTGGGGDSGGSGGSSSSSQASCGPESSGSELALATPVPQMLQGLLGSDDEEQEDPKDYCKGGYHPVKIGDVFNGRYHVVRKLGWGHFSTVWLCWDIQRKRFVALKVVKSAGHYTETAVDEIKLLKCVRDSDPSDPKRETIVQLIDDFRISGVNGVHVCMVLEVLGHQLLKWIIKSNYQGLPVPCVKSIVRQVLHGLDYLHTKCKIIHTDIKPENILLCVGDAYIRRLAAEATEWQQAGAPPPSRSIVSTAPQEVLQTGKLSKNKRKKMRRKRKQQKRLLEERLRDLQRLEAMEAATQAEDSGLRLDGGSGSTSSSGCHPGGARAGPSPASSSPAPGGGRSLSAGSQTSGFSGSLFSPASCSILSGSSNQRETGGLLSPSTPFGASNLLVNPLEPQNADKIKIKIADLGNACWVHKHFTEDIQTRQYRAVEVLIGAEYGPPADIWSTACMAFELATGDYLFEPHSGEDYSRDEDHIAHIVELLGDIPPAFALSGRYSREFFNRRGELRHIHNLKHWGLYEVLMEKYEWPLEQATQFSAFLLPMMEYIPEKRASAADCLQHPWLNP

[3] = target: T3, 371 kinases (kinase named in each endpoint) (Homo sapiens, UniProt P43403); conditions: ZAP70
T3 construct: purchased Reaction Biology

[4] = target: T4, 371 kinases (kinase named in each endpoint) (Homo sapiens, UniProt P09769); conditions: FGR
T4 construct: purchased Reaction Biology

[5] = target: T5, 371 kinases (kinase named in each endpoint) (Homo sapiens, UniProt O75582); conditions: MSK1/RPS6KA5
T5 construct: purchased Reaction Biology

[6] = target: T6, 371 kinases (kinase named in each endpoint) (Homo sapiens, UniProt Q00537); conditions: CDK17/CYCLIN Y (PCTK2)
T6 construct: purchased Reaction Biology

[7] = target: T7, 371 kinases (kinase named in each endpoint) (Homo sapiens, UniProt Q8IWQ3); conditions: BRSK2
T7 construct: purchased Reaction Biology

[8] = target: T8, 371 kinases (kinase named in each endpoint) (Homo sapiens, UniProt Q9H093); conditions: SNARK/NUAK2
T8 construct: purchased Reaction Biology

[9] = target: T9, 371 kinases (kinase named in each endpoint) (Homo sapiens, UniProt Q08345); conditions: DDR1
T9 construct: purchased Reaction Biology

[10] = target: T10, 371 kinases (kinase named in each endpoint) (Homo sapiens, UniProt P34947); conditions: GRK5
T10 construct: purchased Reaction Biology

[11] = target: T11, 371 kinases (kinase named in each endpoint) (Homo sapiens, UniProt P06241); conditions: FYN
T11 construct: purchased Reaction Biology

[12] = target: T12, 371 kinases (kinase named in each endpoint) (Homo sapiens, UniProt Q13555); conditions: CAMK2g
T12 construct: purchased Reaction Biology

[13] = target: T13, 371 kinases (kinase named in each endpoint) (Homo sapiens, UniProt O00311); conditions: CDC7/DBF4
T13 construct: purchased Reaction Biology

[14] = target: T14, 371 kinases (kinase named in each endpoint) (Homo sapiens, UniProt Q9BZL6); conditions: PKD2/PRKD2
T14 construct: purchased Reaction Biology

[15] = target: T15, 371 kinases (kinase named in each endpoint) (Homo sapiens, UniProt P07333); conditions: FMS
T15 construct: purchased Reaction Biology

[16] = target: T16, 371 kinases (kinase named in each endpoint) (Homo sapiens, UniProt P49840); conditions: GSK3a
T16 construct: purchased Reaction Biology

[17] = target: T17, 371 kinases (kinase named in each endpoint) (Homo sapiens, UniProt P54764); conditions: EPHA4
T17 construct: purchased Reaction Biology
T17 sequence (P54764 20-986): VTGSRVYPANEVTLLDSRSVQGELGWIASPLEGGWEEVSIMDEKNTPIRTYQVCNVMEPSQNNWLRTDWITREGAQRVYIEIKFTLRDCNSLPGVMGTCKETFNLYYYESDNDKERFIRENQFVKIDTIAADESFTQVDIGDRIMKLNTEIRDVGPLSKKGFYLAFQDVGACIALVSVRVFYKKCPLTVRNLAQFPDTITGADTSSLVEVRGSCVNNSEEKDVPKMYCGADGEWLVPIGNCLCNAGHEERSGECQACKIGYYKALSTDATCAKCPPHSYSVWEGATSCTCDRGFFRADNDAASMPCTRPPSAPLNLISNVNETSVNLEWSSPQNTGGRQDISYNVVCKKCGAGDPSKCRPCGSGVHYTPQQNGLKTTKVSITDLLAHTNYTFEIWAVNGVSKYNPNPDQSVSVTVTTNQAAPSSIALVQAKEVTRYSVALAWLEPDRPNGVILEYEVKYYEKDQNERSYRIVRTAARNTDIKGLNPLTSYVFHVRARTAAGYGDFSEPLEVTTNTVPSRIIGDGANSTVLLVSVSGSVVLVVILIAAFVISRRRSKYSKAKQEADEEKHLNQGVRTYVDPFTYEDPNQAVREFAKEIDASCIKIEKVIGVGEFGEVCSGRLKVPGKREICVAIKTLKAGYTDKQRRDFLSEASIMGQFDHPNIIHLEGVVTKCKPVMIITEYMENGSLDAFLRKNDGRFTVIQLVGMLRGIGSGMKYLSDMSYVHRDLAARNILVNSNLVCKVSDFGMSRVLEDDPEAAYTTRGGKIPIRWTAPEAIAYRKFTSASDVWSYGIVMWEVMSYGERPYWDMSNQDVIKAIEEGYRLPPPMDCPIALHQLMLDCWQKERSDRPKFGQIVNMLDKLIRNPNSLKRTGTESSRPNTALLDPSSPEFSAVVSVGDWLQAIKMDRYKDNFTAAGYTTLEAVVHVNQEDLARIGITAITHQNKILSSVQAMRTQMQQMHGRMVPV

[18] = target: T18, 371 kinases (kinase named in each endpoint) (Homo sapiens, UniProt Q9UK32); conditions: RSK4
T18 construct: purchased Reaction Biology

[19] = target: T19, 371 kinases (kinase named in each endpoint) (Homo sapiens, UniProt Q14680); conditions: MELK
T19 construct: purchased Reaction Biology

[20] = target: T20, 371 kinases (kinase named in each endpoint) (Homo sapiens, UniProt Q9H2K8); conditions: TAOK3/JIK
T20 construct: purchased Reaction Biology

[21] = target: T21, 371 kinases (kinase named in each endpoint) (Homo sapiens, UniProt Q9HCP0); conditions: CK1G1
T21 construct: purchased Reaction Biology

[22] = target: T22, 371 kinases (kinase named in each endpoint) (Homo sapiens, UniProt Q56UN5); conditions: YSK4/MAP3K19
T22 construct: purchased Reaction Biology
T22 sequence (Q56UN5 whole entry): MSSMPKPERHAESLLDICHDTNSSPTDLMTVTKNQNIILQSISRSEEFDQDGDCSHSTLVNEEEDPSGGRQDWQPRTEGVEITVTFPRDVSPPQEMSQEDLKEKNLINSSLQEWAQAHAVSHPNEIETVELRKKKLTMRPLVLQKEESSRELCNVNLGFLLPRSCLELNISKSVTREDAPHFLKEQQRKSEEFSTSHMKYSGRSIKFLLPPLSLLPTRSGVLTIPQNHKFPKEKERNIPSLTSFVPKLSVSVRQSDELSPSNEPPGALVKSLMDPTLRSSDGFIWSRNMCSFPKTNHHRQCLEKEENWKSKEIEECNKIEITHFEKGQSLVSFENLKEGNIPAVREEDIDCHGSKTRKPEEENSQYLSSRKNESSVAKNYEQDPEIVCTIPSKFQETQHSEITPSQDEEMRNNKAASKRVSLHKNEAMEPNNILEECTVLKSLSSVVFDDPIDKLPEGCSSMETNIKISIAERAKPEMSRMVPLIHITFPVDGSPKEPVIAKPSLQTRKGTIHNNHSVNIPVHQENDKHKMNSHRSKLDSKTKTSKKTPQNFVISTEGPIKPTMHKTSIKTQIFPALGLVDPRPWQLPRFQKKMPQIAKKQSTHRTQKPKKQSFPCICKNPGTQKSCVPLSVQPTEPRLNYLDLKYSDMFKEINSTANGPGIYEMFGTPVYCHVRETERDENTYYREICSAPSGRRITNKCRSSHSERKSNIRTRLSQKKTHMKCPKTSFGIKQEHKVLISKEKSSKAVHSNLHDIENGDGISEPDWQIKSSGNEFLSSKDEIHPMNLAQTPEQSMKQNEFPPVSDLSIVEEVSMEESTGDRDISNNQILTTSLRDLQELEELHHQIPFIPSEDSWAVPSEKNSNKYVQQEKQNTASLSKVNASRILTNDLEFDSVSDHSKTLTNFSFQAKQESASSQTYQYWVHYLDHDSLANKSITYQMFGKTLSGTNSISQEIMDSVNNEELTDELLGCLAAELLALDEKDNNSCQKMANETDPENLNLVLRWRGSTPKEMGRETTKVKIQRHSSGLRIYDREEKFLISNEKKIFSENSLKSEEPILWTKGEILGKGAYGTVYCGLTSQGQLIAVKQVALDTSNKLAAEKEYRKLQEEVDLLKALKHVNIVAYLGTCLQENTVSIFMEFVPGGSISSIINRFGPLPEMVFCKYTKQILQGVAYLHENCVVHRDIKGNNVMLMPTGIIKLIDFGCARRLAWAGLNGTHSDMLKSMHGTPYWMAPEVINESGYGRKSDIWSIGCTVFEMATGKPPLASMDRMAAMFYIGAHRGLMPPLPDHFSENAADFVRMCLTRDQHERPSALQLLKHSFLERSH

[23] = target: T23, 371 kinases (kinase named in each endpoint) (Homo sapiens, UniProt Q8IY84); conditions: NIM1
T23 construct: purchased Reaction Biology

[24] = target: T24, 371 kinases (kinase named in each endpoint) (Homo sapiens, UniProt P48729); conditions: CK1A1
T24 construct: purchased Reaction Biology

[25] = target: T25, 371 kinases (kinase named in each endpoint) (Homo sapiens, UniProt Q07002); conditions: CDK18/CYCLIN Y (PCTK3)
T25 construct: purchased Reaction Biology
T25 sequence (Q07002 whole entry): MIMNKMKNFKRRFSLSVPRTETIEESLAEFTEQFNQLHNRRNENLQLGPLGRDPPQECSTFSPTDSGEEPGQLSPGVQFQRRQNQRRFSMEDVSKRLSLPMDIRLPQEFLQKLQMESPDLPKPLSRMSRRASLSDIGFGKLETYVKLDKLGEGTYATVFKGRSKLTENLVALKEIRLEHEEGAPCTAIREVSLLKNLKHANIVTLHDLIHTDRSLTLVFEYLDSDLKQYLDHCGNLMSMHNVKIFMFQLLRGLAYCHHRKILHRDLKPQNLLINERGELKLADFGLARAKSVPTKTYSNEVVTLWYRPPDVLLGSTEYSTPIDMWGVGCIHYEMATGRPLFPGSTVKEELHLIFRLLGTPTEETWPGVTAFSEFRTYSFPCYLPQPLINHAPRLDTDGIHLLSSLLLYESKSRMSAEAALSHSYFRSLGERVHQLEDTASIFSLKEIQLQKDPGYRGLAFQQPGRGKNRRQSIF

[26] = target: T26, 371 kinases (kinase named in each endpoint) (Homo sapiens, UniProt P52333); conditions: JAK3
T26 construct: purchased Reaction Biology

[27] = target: T27, 371 kinases (kinase named in each endpoint) (Homo sapiens, UniProt Q5TCX8); conditions: MLK4
T27 construct: purchased Reaction Biology

[28] = target: T28, 371 kinases (kinase named in each endpoint) (Homo sapiens, UniProt Q9H1R3); conditions: MLCK2/MYLK2
T28 construct: purchased Reaction Biology

[29] = target: T29, 371 kinases (kinase named in each endpoint) (Homo sapiens, UniProt P09619); conditions: PDGFRB
T29 construct: purchased Reaction Biology

[30] = target: T30, 371 kinases (kinase named in each endpoint) (Homo sapiens, UniProt Q96S53); conditions: TESK2
T30 construct: purchased Reaction Biology

[31] = target: T31, 371 kinases (kinase named in each endpoint) (Homo sapiens, UniProt Q04912); conditions: RON/MST1R
T31 construct: purchased Reaction Biology

[32] = target: T32, 371 kinases (kinase named in each endpoint) (Homo sapiens, UniProt P21709); conditions: EPHA1
T32 construct: purchased Reaction Biology

[33] = target: T33, 371 kinases (kinase named in each endpoint) (Homo sapiens, UniProt P06239); conditions: LCK
T33 construct: purchased Reaction Biology

[34] = target: T34, 371 kinases (kinase named in each endpoint) (Homo sapiens, UniProt Q13237); conditions: PKG2/PRKG2
T34 construct: purchased Reaction Biology
T34 sequence (Q13237 whole entry): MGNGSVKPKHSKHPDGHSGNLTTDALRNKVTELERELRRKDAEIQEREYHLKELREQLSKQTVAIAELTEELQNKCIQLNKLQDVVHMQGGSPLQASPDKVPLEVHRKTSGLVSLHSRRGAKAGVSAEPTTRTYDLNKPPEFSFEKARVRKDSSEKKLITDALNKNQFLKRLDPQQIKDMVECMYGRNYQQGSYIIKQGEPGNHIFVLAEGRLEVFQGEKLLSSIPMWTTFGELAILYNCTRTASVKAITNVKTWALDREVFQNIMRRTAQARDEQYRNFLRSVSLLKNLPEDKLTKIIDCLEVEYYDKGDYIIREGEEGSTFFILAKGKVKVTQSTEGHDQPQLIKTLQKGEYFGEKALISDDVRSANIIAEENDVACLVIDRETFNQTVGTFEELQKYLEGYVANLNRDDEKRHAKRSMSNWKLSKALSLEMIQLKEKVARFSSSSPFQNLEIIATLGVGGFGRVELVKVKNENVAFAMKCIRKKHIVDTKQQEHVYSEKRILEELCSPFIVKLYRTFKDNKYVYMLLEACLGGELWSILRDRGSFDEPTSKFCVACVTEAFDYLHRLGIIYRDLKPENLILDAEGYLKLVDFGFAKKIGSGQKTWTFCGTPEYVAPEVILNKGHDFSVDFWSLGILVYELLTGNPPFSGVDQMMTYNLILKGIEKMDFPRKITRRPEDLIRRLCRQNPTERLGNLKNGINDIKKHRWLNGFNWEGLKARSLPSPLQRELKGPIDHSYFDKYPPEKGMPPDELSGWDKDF

[35] = target: T35, 371 kinases (kinase named in each endpoint) (Homo sapiens, UniProt Q86V86); conditions: PIM3
T35 construct: purchased Reaction Biology

[36] = target: T36, 371 kinases (kinase named in each endpoint) (Homo sapiens, UniProt Q9Y6E0); conditions: MST3/STK24
T36 construct: purchased Reaction Biology

T1 sequence (Q8WTQ7 whole entry): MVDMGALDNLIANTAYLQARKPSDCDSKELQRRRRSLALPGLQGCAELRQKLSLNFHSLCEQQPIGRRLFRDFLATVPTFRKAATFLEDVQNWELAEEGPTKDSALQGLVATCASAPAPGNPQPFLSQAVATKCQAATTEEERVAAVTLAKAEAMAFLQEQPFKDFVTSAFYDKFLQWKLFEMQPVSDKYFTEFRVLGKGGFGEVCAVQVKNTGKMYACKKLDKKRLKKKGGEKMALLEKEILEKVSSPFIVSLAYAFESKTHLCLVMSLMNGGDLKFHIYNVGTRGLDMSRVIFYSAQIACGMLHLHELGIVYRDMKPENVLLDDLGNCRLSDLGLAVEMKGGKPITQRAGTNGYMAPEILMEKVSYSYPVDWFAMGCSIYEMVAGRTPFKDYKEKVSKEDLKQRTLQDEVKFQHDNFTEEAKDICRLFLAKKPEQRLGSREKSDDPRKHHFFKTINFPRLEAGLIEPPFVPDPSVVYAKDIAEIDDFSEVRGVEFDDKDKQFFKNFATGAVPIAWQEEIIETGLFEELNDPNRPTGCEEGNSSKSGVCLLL

## O=C(O)c1cc(C(F)(F)F)ccc1NCCc1c[nH]c2cc(Br)ccc12 [Compound 5, 2-((2-(6-Bromo-1H-indol-3-yl)ethyl)amino)−5-(trifluoromethyl)benzoic Acid]
[1]
  activity at 10 µM: 101.5 ± 0.4%
[2]
  activity at 10 µM: 69.7 ± 3%
[3]
  activity at 10 µM: 95.1 ± 1.6%
[4]
  activity at 10 µM: 83.5 ± 1.1%
[5]
  activity at 10 µM: 82.2 ± 0.5%
[6]
  activity at 10 µM: 124%
[7]
  activity at 10 µM: 79.5 ± 0.8%
[8]
  activity at 10 µM: 87.7 ± 2.3%
[9]
  activity at 10 µM: 87.7 ± 0.4%
[10]
  activity at 10 µM: 101 ± 1.1%
[11]
  activity at 10 µM: 86.4 ± 1.8%
[12]
  activity at 10 µM: 74.4%
[13]
  activity at 10 µM: 77.9 ± 2.9%
[14]
  activity at 10 µM: 84.1 ± 0.4%
[15]
  activity at 10 µM: 98 ± 1.7%
[16]
  activity at 10 µM: 67.6 ± 0.3%
[17]
  activity at 10 µM: 94.3 ± 0.5%
[18]
  activity at 10 µM: 91 ± 0.4%
[19]
  activity at 10 µM: 95.8 ± 3%
[20]
  activity at 10 µM: 83.3 ± 2.1%
[21]
  activity at 10 µM: 96.2 ± 0.3%
[22]
  activity at 10 µM: 110.3 ± 0.7%
[23]
  activity at 10 µM: 88.9 ± 1%
[24]
  activity at 10 µM: 91.2 ± 0.3%
[25]
  activity at 10 µM: 99 ± 0.1%
[26]
  activity at 10 µM: 94.7 ± 0.1%
[27]
  activity at 10 µM: 88.2 ± 0.3%
[28]
  activity at 10 µM: 70.7 ± 0.3%
[29]
  activity at 10 µM: 92.5 ± 0.1%
[30]
  activity at 10 µM: 78.7 ± 0.8%
[31]
  activity at 10 µM: 89.7 ± 2.7%
[32]
  activity at 10 µM: 102.2 ± 0.1%
[33]
  activity at 10 µM: 76.5 ± 2.7%
[34]
  activity at 10 µM: 117 ± 7.9%
[35]
  activity at 10 µM: 20.6 ± 1%
[36]
  activity at 10 µM: 104 ± 1.9%
